In ChEMBL document CHEMBL1123423, “Tranexamic acid derivatives with enhanced absorption” (J Med Chem, 1986):

Assays:
[1] = Half-life in buffer at pH 7.5; type: ADME
[2] = Half-life in buffer at pH 1.2; type: ADME
[3] = test system: Rattus norvegicus; assay: Compound was evaluated for percent tranexamic acid recovered in rat urine within 24 hr after oral administration of per moiety tranexamic acid; type: ADME, organism-based; settings: in vivo
[4] = test system: Rattus norvegicus; assay: Compound was evaluated for percent tranexamic acid recovered in rat urine within 24 hr after oral administration of 0.1 mmol/kg of body weight per mole of pro drug; type: ADME, organism-based; settings: in vivo
[5] = test system: Rattus norvegicus; assay: Compound was evaluated for percent recovery of tranexamic acid in urine from rat within 24 hr after oral administration of the dose […] of body weight; type: ADME, organism-based; settings: in vivo
[6] = Half-life in 90% human heparinized plasma.; type: ADME
[7] = test system: Rattus norvegicus; assay: Compound was evaluated for percent recovery of tranexamic acid in urine from rat within 24 hr after oral administration of the dose 1 mmol/kg of body weight; type: ADME, organism-based; settings: in vivo
[8] = test system: Rattus norvegicus; assay: Compound was evaluated for percent tranexamic acid recovered in rat urine within 24 hr after oral administration of 0.1 mmol/kg of body weight.; type: ADME, organism-based; settings: in vivo
[9] = Half-life in phosphate buffer at pH 7.5; type: ADME
[10] = Half-life in phosphate buffer at pH 1.2; type: ADME

Row | Compound | half-life [1] [h] | half-life [2] [h] | Absorption [3] [%] | Absorption [4] [%] | half-life [6] [h] | also measured
1 | CCOC(=O)C(OC(=O)[C@H]1CC[C@H](CN)CC1)OC(=O)[C@H]1CC[C@](C)(CN)CC1.Cl.Cl (stereo partly specified) | 0.9 | 11 | 31 | 62 |  | 
2 | CCOC(=O)OC(C)OC(=O)[C@H]1CC[C@H](CN)CC1.Cl (stereo partly specified) | 90 | 54 |  | 50 | 0.025 | Recovery [5]: 50%; Recovery [7]: 62%
3 | CC(=O)OC(C)OC(=O)[C@H]1CC[C@H](CN)CC1.Cl (stereo partly specified) | 68 | 14 |  | 59 | 0.1 | 
4 | Cl.NCc1ccc(C(=O)OCOC(=O)[C@H]2CC[C@H](CN)CC2)cc1 |  |  |  | 35 |  | 
5 | CN(C)C(=O)C(OC(=O)[C@H]1CC[C@H](CN)CC1)OC(=O)[C@H]1CC[C@](C)(CN)CC1.Cl.Cl (stereo partly specified) | 6.7 | 38 | 27 | 54 |  | 
6 | CCN(CC)C(=O)C(OC(=O)[C@H]1CC[C@H](CN)CC1)OC(=O)[C@H]1CC[C@](C)(CN)CC1.Cl.Cl (stereo partly specified) |  |  | 17 | 34 |  | 
7 | CC(C)C(=O)OCOC(=O)[C@H]1CC[C@H](CN)CC1.Cl | 36 | 18 |  | 54 | 0.00833 | 
8 | CC(OC(=O)C(C)(C)C)OC(=O)[C@H]1CC[C@H](CN)CC1.Cl (stereo partly specified) |  |  |  | 43 |  | 
9 | CC(C)(C)C(=O)NCOC(=O)[C@H]1CC[C@H](CN)CC1.Cl | 10 | 2 |  | 22 |  | 
10 | C[C@]1(CN)CC[C@H](C(=O)OCc2oc(=O)oc2COC(=O)[C@H]2CC[C@H](CN)CC2)CC1.Cl.Cl |  |  | 27 | 54 |  | 
11 | CC(OC(=O)C(C)C)OC(=O)[C@H]1CC[C@H](CN)CC1.Cl (stereo partly specified) | 140 | 22 |  | 71 |  | 
12 | CCOC(=O)[C@H]1CC[C@H](CN)CC1.Cl |  |  |  |  | 4 | Absorption [8]: 92%
13 | CC(C)(C)C(=O)OCOC(=O)[C@H]1CC[C@H](CN)CC1.Cl | 147 | 164 |  | 36 | 0.0333 | Recovery [5]: 36%; Recovery [7]: 58%
14 | C[C@]1(CN)CC[C@H](C(=O)OCOC(=O)[C@H]2CC[C@H](CN)CC2)CC1.Cl.Cl | 26 | 31 | 25 | 50 | 0.025 | Recovery [5]: 25%; Recovery [7]: 32%
15 | Cl.NC[C@H]1CC[C@H](C(=O)Oc2ccc(CCC(=O)O)cc2)CC1 [CETRAXATE HYDROCHLORIDE] |  |  |  | 28 |  | 
16 | NC[C@H]1CC[C@H](C(=O)O)CC1 [TRANEXAMIC ACID] |  |  |  |  |  | Absorption [8]: 22%; Recovery [7]: 11%
17 | CCC(OC(=O)[C@H]1CC[C@H](CN)CC1)OC(=O)[C@H]1CC[C@](C)(CN)CC1.Cl.Cl (stereo partly specified) | 70 | 29 | 13 | 26 | 0.1 | 
18 | Cc1oc(=O)oc1COC(=O)[C@H]1CC[C@H](CN)CC1.Cl |  |  |  | 67 |  | half-life [9]: 2 h; half-life [10]: 25 h
19 | CC(OC(=O)[C@H]1CC[C@H](CN)CC1)OC(=O)[C@H]1CC[C@](C)(CN)CC1.Cl.Cl (stereo partly specified) |  |  | 21 | 42 |  | 
20 | Cl.NC[C@H]1CC[C@H](C(=O)OC2OC(=O)c3ccccc32)CC1 (stereo partly specified) |  |  |  | 44 |  | Recovery [5]: 44%; half-life [9]: 5 h; Recovery [7]: 54%
21 | CC(C)OC(=O)OC(C)OC(=O)[C@H]1CC[C@H](CN)CC1.Cl (stereo partly specified) | 144 | 58 |  | 43 |  | Recovery [5]: 43%; Recovery [7]: 86%
